Numbers after ± are expanded uncertainties.
Assays:
[1] = 293.15 K, 101.33 kPa, Liquid
[2] = refractive index (Na D-line) (dimensionless); details: 293.15 K; 101.33 kPa; Liquid; Standard Abbe refractometry

CC(C)=O [acetone]
mass density [1]: 790 ± 1 kg/m3
refractive index [2]: 1.359 ± 0.0007

CCO [ethanol]
mass density ([1]; Vibrating tube method): 790 ± 1 kg/m3
refractive index [2]: 1.366 ± 0.0007

c1ccccc1 [benzene]
mass density ([1]; Vibrating tube method): 879 ± 1 kg/m3
refractive index [2]: 1.5011 ± 0.0007

CO [methanol]
mass density ([1]; Vibrating tube method): 792 ± 1 kg/m3
refractive index [2]: 1.3301 ± 0.0007
